# According to EPA's ToxValDB 9.5 (doi:10.2903/j.efsa.2008.127r):
# What was measured:
# [1] = test system: Anas platyrhynchos
# [2] = test system: Apis mellifera; details: acute, mortality
# [3] = test system: Bibionidae; details: chronic/long-term; duration: 27 days
# [4] = test system: Colinus virginianus
# [5] = test system: Daphnia magna; details: chronic/long-term; duration: 21 days; reproduction
# [6] = test system: Folsomia candida; details: chronic/long-term; duration: 28 days
# [7] = test system: Oncorhynchus mykiss
# [8] = test system: Rattus norvegicus
# [9] = test system: Tagia sp.
structure (smiles),measurement,setting,value
CCCCN(CC)c1c([N+](=O)[O-])cc(C(F)(F)F)cc1[N+](=O)[O-] [Benfluralin],NOEC,[1]; reproductive,49.3 mg/kg-day
same,LC50,"[1]; short-term, oral, feed, mortality",> 793 mg/kg-day
same,LD50,[2]; dermal,> 100 µg/piece
same,LD50,"[2]; oral, unspecified",> 111 µg/piece
same,NOEC,[3],0.231 mg/L
same,LC50,"[4]; acute, oral, diet, mortality",> 909 mg/kg-day
same,LD50,"[4]; acute, oral, mortality",> 2000 mg/kg-day
same,NOEC,[4]; reproduction developmental,8.6 mg/kg-day
same,NOEC,[5],0.0155 mg/L
same,NOEC,[6],5.5 mg/kg
same,LC50,"[7]; acute, duration: 96 hours, mortality",0.081 µg/mL
same,NOEC,"[7]; chronic/long-term, duration: 49 days, growth",0.0019 mg/L
same,LD50,"[8]; acute, oral, mortality",> 5000 mg/kg-day
same,NOAEL,"[8]; chronic, duration: 2 years, histopathology: nonneoplastic",0.5 mg/kg-day
same,NOAEL,"[8]; reproduction developmental, body weight",5.5 mg/kg-day
same,NOAEL,"[8]; subchronic, duration: 90 days, oral, histopathology: nonneoplastic",17 mg/kg-day
same,LC50,"[9]; acute, duration: 14 days, mortality",> 1000 mg/kg
same,NOEC,"[9]; chronic/long-term, duration: 8 weeks",30.8 mg/kg
